Tested on: release of glutamate from synaptosomes of mouse brains
Test: Release of glutamate from synaptosomes of mouse brains (cerebellar mossy fibers), spontaneous and induced by depolarization, chemiluminescence detection
Assay type: cell-based
Procedure: B: Study of the effect of naftazone and of its glucuronide derivatives on the release of glutamate from synaptosomes of mouse brains.
In order to prepare the synaptosomes of mossy fibers, the Swiss-Webster […] are decapitated and the cerebellum is rapidly removed. Small pieces of tissue (1–2 mm^3) are washed in 100 ml of a mammal saline standard solution containing (mM): NaCl, 136; KCl, 5.6; MgCl2 1.2; CaCl2 2.2; glucose 5.5; NaHCO3 7.5; NaHPO4/Na2HPO4 buffer 1.2.
An oxygen current is caused to flow through them for 10 minutes.
In order to dissociate the pieces, they are sucked in a reciprocal movement with a 1 ml pipette.
The homogenate obtained is diluted in 3 ml of mammal Krebs's solution and is filtered through a Nylon® tissue (mesh 50 μm).
The filtrate is collected and left to settle for 30–45 min by gravity.
Synaptosomes derived from the glutarmatergic mossy fibers settle because or their large size with the nuclear fraction. The supernatant is discarded and the sediment is resuspended in 1 ml of a standard solution. The release of glutamate from the synaptosomes is detected according to the technique used for evaluating it in the CSF.
FIGS. 2A and 2B show the effects of naftazone (at concentrations of 0.5–50 μM) and of its glucuronidated derivative, respectively, on the spontaneous release of glutamate (curve -∘-) and of that induced by depolarization (curve -•-).
Each point in A and B represents the ISEM average of 3 measurements carried out in triple. In A, the spontaneously released glutamate is continuously measured during an exposure of 1 hour to the tested drug and is compared with controls. Release of glutamate by depolarization is determined after a 1 hour exposure to the tested drug and is compared with controls.
The drugs are left to incubate for 1 hour with synaptosomal aliquots before the measurement.

With `NC(=O)NNc1ccc2ccccc2c1O[C@@H]1O[C@H](C(=O)O)[C@@H](O)[C@H](O)[C@H]1O` [glucuronidated derivative, 1-(1-hydroxy,2-naphthyl)semicarbazide-1-β-O-glucopyranosiduronic acid] the “release of glutamate induced by a medium with a high K+ content” value (K+ (20 mM) containing Ca (5 mM), FIG. 2B) was “reduces, in a dose-dependent way”, the “maximum reduction of K+-induced release of glutamate” value (at highest concentration tested (32 μM), K+ 20 mM, Ca 5 mM) was “about 60%” and the “spontaneous release of glutamate from synaptosomes” value (glucuronidated derivative, range of the concentrations used (FIG. 2B)) was “does not reduce the spontaneous release of glutamate”.

Reference: patent US7572774B2, “Methods for treating glutamate cytotoxicity with beta-naphthoquinone compounds” (Centre National de la Recherche Scientific (C.N.R.S.), priority 1999, dated 2009)
